Reference: EP1061957B1, “MANGANESE (II) CHELATES WITH HIGH RELAXIVITY IN SERUM” (BRACCO S.p.A., priority 1998, dated 1999)
Where two headings read alike, the source gives them in different places.

Tests used:
[1] = Relaxivity in human serum reconstituted from Seronorm Human; assay type: physicochemical; conditions: human serum reconstituted from lyophilized Seronorm Human (Nycomed Pharma)
Protocol: The relaxivity of the compounds of the invention was measured both in saline solution and in human serum, reconstituted from Seronorm^(R) Human (Nycomed Pharma), lyophilized human serum.

[2] = tested on: mouse; conditions: literature value, cited from earlier work
[3] = Thermodynamic stability constant in aqueous solution, potentiometric method; assay type: physicochemical; conditions: 20°C, 0.1 M KCl aqueous solution
[4] = tested on: mouse; test: Acute toxicity, DL50 in the mouse; assay type: in vivo; conditions: i.v.
[5] = thermodynamic stability constant; from Smith and Martell, Critical Stability Constants, Vol. 6; cited from earlier work

Compound	Relaxivity Seronorm Human r1 [1]	DL50 ([2]; i.v.)	Log KML [3]	DL50 [4] [mmol/kg]	Log KML [5]	DL50 ([2]; i.p.)
[Cl][Mn][Cl] [MnCl2]	53 ^(3) mM^-1s^-1	0.25 - 0.30 ^(1) mmol/kg	–	–	–	–
Manganese complex(II) of N,N'-1,2-ethanediylbis[N-(carboxymethyl)-O-(phenylmethyl) -D,L-serine] salified with 1-deoxy-1-(methyl amino) -D-glucitol (1:2) [EXAMPLE 1]	36 ^(3) mM^-1s^-1	–	13.8 ± 0.1	4.5	–	–
Mn-EDTA	10 ^(3) mM^-1s^-1	–	–	–	13.88 ^(2)	5.9 ^(2) mmol/kg
